Laboratory results from ChEMBL document CHEMBL1201862, “PubChem BioAssay data set” (2004).
Activity calls are given as the source filed them.

Columns and labels:
Streptokinase A = biological target: T1, Streptokinase A (Streptococcus pyogenes serotype M1, UniProt P10520); test: S. pyogenes streptokinase expression inhibitors, potency, dose response, plasminogen activation absorbance, OD405 (AID 1914); type: functional, Streptococcus pyogenes M1 GAS;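 further: secreted streptokinase activity via plasminogen activation per viability signal from cell pellet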
T1 sequence (P10520 whole entry): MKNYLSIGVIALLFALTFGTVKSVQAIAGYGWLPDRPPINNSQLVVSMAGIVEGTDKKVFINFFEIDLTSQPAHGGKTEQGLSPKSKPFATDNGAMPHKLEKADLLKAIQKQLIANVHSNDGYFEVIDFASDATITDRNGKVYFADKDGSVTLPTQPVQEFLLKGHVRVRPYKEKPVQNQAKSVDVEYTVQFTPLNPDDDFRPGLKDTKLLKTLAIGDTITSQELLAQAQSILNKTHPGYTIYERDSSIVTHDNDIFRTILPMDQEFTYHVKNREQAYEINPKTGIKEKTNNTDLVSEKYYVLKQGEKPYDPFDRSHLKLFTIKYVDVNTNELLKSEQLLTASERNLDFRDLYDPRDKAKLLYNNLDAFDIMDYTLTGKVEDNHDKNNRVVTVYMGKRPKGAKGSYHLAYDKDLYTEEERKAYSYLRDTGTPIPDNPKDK

[1] = test system: Streptococcus sp. 'group A'; test: growth inhibition of control SK(-) GAS strain, dose response, counter-screen for streptokinase expression inhibitor project, luminescence, kanamycin, BacTiterGlo, confirmation (AID 1900); type: functional, organism-based
Streptococcus = test: Group A Streptococcus viability loss, dose response, counter-screen for streptokinase expression inhibitor project, luminescence, BacTiterGlo (AID 1915); type: functional, organism-based;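 further: potency for reduction of bacterial viability or growth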
Cytochrome P450 2D6 = Cytochrome P450 2D6 (Homo sapiens, UniProt P10635);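 further: CYP2D6 member of a cytochrome P450 panel assay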
Cytochrome P450 2C9 = Cytochrome P450 2C9 (Homo sapiens, UniProt P11712)
Cytochrome P450 1A2 = biological target: T2, Cytochrome P450 1A2 (Homo sapiens, UniProt P05177);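 further: PubChem cytochrome P450 panel assay, CYP1A2 panel member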
T2 sequence (P05177 whole entry): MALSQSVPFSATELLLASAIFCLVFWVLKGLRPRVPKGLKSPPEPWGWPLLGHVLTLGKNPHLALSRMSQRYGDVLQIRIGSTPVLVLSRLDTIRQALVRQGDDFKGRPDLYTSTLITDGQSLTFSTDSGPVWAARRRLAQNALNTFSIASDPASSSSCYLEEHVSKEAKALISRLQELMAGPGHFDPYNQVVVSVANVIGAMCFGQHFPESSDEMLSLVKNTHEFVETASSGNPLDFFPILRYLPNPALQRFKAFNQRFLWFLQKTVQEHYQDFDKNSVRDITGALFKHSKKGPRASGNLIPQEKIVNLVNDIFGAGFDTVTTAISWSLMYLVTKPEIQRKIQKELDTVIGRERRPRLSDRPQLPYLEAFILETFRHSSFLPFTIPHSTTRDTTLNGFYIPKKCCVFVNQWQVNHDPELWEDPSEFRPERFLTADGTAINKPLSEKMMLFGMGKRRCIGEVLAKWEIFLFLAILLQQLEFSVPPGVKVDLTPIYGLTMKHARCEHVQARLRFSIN

Cytochrome P450 3A4 = Cytochrome P450 3A4 (Homo sapiens, UniProt P08684);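 further: CYP3A4 tested as one member of a cytochrome P450 panel screen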
Cytochrome P450 2C19 = Cytochrome P450 2C19 (Homo sapiens, UniProt P33261); test: Cytochrome panel assay with activity outcomes. Panel member name: p450-cyp2c19 Compounds with AC50 equal or less than 10 uM are considered active; type: functional; conditions: read-out: AC50
INS1 = test: beta cell apoptosis inhibitors, cytokine rescue, dose response, luminescence, retest (AID 449756); type: functional, cell-based; conditions: Rattus norvegicus;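 further: cell death triggered by IL-1 beta plus TNF-alpha plus IFN-gamma mixture; protective hits raise ATP signal compared with cytokine alone wells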
[2] = inhibitors of SNCA 5'UTR-driven reporter translation, confirmation, H4 neuroglioma cells, luminescence (AID 1988); type: functional, cell-based
[3] = Luminescence Cell-Based Dose Response HTS to Identify Inhibitors of 5'UTR Stem-Loop Driven Prion Protein mRNA Translation in H4 Neuroglioblastoma Cells. [Related pubchem assays: 1827 (Project Summary), 1813 (Primary HTS)]; type: functional
[4] = Luminescence Cell-Based Dose Retest to Confirm Inhibitors of Cancer Stem Cells. [Related pubchem assays (depositor defined):AID2717, AID2721]; type: functional; conditions: Homo sapiens
[5] = inhibitors of firefly luciferase expression or activity, dose response, H4 neuroglioma cells, luminescence (AID 1990); type: functional, cell-based
[6] = cytotoxicity toward NIH3T3 fibroblasts, dose response, counter-screen, cell-based, ATP luminescence, mouse fibroblasts (AID 2010); type: functional;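 further: cells exposed to compound for about 90 hours before reading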
[7] = inhibitors of intracellular T. cruzi replication, confirmation, NIH3T3 host cells, beta-gal luminescence (AID 2044); type: functional, cell-based;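 further: intracellular parasites grown in NIH/3T3 mouse fibroblasts as host cells; luminescent beta-galactosidase reporter signal from transgenic T. cruzi replicating inside host cells; inhibitors lower the luminescence signal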

Sequence of Cytochrome P450 3A4 (P08684 whole entry): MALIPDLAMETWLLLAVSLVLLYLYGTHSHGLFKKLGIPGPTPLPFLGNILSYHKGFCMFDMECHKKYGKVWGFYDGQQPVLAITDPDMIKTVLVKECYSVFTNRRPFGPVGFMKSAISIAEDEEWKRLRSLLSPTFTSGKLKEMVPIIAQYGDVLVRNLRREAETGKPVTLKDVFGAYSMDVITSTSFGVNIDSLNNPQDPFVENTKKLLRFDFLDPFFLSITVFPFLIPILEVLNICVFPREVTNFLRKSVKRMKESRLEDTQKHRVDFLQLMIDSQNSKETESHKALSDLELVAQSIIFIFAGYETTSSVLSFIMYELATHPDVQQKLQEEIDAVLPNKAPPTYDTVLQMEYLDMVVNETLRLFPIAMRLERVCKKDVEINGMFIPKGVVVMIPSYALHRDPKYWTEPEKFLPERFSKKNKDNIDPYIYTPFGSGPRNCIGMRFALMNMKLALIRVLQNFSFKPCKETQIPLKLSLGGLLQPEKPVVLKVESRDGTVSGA
Sequence of Cytochrome P450 2D6 (P10635 whole entry): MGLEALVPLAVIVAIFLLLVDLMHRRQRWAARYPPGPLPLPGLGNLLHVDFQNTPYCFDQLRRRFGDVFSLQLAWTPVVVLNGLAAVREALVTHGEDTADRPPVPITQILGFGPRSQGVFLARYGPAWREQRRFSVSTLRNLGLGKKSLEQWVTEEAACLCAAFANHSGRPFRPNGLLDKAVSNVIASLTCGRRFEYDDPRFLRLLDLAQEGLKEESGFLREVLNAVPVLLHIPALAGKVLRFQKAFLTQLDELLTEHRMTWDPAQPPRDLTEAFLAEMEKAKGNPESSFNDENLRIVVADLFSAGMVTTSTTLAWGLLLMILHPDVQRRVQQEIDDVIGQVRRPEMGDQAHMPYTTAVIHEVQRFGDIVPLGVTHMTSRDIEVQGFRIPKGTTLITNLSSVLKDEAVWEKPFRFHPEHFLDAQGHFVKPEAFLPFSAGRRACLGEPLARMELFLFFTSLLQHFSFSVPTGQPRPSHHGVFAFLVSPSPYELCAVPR
Sequence of Cytochrome P450 2C9 (P11712 whole entry): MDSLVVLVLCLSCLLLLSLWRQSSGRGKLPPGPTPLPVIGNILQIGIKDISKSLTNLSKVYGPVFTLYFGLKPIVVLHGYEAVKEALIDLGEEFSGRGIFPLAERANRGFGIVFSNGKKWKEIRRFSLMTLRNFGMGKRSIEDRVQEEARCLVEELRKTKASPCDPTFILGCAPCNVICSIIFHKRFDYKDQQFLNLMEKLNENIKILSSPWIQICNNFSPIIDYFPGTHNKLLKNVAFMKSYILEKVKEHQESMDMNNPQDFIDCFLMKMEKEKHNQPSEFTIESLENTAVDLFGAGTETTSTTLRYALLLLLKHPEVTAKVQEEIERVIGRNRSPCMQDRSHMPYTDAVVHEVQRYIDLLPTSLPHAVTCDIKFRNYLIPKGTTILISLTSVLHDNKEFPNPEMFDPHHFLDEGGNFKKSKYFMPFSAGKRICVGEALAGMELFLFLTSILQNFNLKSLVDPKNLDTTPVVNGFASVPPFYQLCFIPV
Sequence of Cytochrome P450 2C19 (P33261 whole entry): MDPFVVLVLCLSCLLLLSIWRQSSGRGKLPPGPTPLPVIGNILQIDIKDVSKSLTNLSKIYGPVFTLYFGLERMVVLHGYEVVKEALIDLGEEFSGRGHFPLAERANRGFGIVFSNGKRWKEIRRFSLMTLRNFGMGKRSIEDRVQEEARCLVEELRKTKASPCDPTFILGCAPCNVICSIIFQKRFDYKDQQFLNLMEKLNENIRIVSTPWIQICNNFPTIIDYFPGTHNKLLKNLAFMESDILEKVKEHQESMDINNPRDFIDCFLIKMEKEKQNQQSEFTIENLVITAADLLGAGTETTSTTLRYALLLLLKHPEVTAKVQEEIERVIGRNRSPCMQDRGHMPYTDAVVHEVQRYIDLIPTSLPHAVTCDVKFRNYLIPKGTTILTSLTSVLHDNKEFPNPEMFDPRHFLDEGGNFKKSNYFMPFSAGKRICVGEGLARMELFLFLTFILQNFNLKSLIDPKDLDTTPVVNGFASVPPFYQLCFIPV

For Fc1cc(F)c(C2SCCN2C(=S)Nc2cccc(C(F)(F)F)c2)c(F)c1 (stereo not drawn), which EC50 (Streptokinase A) is on record?
The EC50 was 11.1 µM (active).

And the EC50 [1]?
Its EC50 is 6.86 µM (active).

What about the EC50 (Streptococcus) of the same compound?
The EC50 was > 150 µM (not active).

Which AC50 (Cytochrome P450 2D6) does the source give for Cc1cccc(NCCNc2cccc(C)c2)c1 here?
Its AC50 is 12.6 µM (inconclusive).

What about the AC50 (Cytochrome P450 2C9) of the same compound?
Its AC50 is 17.8 µM (inconclusive).

Which results are given for COc1ccc(NC(=O)N2CCC3(CC2)CCN(S(=O)(=O)c2ccccc2)CC3)cc1?
AC50 (Cytochrome P450 2D6): 25.1 µM (inconclusive); AC50 (Cytochrome P450 1A2): 31.6 µM (inconclusive); AC50 (Cytochrome P450 3A4): 20 µM (inconclusive)

For CN1CCN(c2ncc3nc(-c4ccccc4)c(=O)n(C)c3n2)CC1, which AC50 (Cytochrome P450 1A2) is on record?
The AC50 was 15.8 µM (inconclusive).

With NC(=O)OCC(COC(N)=O)c1ccccc1 [FELBAMATE] as the compound, how does the AC50 (Cytochrome P450 1A2) read?
The AC50 was 39.8 µM (inconclusive).

With CCSc1nnc(C(N)Cc2ccccc2)o1 (stereo not drawn) as the compound, how does the AC50 (Cytochrome P450 2D6) read?
Its AC50 is 17.8 µM (inconclusive).

What about the AC50 (Cytochrome P450 2C9) of the same compound?
Its AC50 is 2.24 µM (inconclusive).

What about the AC50 (Cytochrome P450 2C19) of the same compound?
Its AC50 is 28.2 µM (inconclusive).

What does the source list for Cc1nn(Cc2ccc(Cl)cc2Cl)c(C)c1NC(=O)c1sc2ccccc2c1Cl?
AC50 (Cytochrome P450 2C9): 1.78 µM (inconclusive); AC50 (Cytochrome P450 2C19): 22.4 µM (inconclusive); AC50 (Cytochrome P450 1A2): 25.1 µM (inconclusive)

For Oc1cc(-c2ccc(N3CCCCC3)nc2)cc2cccnc12, which AC50 (INS1) is on record?
The AC50 was 3.18 µM (active).

With O=C(c1nc2ccc(Cl)cn2c1CN1CCC(CO)CC1)N1CCc2ccccc2C1 as the compound, how does the EC50 (Streptokinase A) read?
The EC50 was > 150 µM (not active).

What about the EC50 [1] of the same compound?
The EC50 was > 150 µM (not active).

What about the EC50 (Streptococcus) of the same compound?
Its EC50 is > 150 µM (not active).

Which AC50 (Cytochrome P450 2D6) does the source give for c1cnc(N2CCC3(CCNCC3)CC2)nc1 here?
The AC50 was 10 µM (inconclusive).

And the AC50 (Cytochrome P450 3A4)?
The AC50 was 20 µM (inconclusive).

For O=P(c1ccccc1)(c1ccccc1)N1CC2(CC2)CC(O)(c2ccccc2)C1 (stereo not drawn), which AC50 (Cytochrome P450 2D6) is on record?
The AC50 was 20 µM (inconclusive).

And the AC50 (Cytochrome P450 2C9)?
The AC50 was 39.8 µM (inconclusive).

For O=c1cc(CNc2cc(C(F)(F)F)cc(C(F)(F)F)c2)nc2sccn12, which EC50 [2] is on record?
The EC50 was > 120 µM (not active).

And the EC50 [3]?
The EC50 was 39.2 µM (active).

And the AC50 [4]?
Its AC50 is 1.99 µM (active).

And the EC50 [5]?
Its EC50 is 17.5 µM (active).

With CCCN(CCC)CCCNC(=O)c1ccc2c(c1)N(CC)C(=O)c1ccccc1[S+]2[O-] (stereo not drawn) as the compound, how does the AC50 (Cytochrome P450 2D6) read?
Its AC50 is 22.4 µM (inconclusive).

What about the AC50 (Cytochrome P450 1A2) of the same compound?
The AC50 was 0.01 µM (inconclusive).

Which results are given for Cc1ccc(NC(=O)c2c(C(F)(F)F)nn(C)c2SCc2cccc(C(F)(F)F)c2)cc1C?
AC50 (Cytochrome P450 2D6): 14.1 µM (inconclusive); EC50 [6]: > 60 µM (inconclusive); EC50 [7]: 2.52 µM (active); AC50 (INS1): 5.94 µM (active)

Which results are given for COc1cccc2[nH]c3c(N4CC(C)CC(C)C4)ncnc3c12 (stereo not drawn)?
EC50 [6]: > 60 µM (not active); EC50 [7]: 1.39 µM (active); AC50 (Cytochrome P450 3A4): 0.891 µM (inconclusive)

For CCCC[N+]1(C)[C@@H]2CC(OC(=O)[C@@H](CO)c3ccccc3)C[C@H]1[C@H]1O[C@H]12 (stereo partly drawn), which AC50 (Cytochrome P450 2D6) is on record?
The AC50 was 7.94 µM (inconclusive).

Which AC50 [4] does the source give for O=C(CC1NCCc2ccccc21)Nc1ccc(Oc2ccccc2)cc1 (stereo not drawn) here?
The AC50 was 7.35 µM (active).

With COC(=O)C1=C(C)N=C2SC(C)C(=O)N2C1/C=C/c1ccccc1 (stereo not drawn) as the compound, how does the AC50 (Cytochrome P450 2D6) read?
Its AC50 is 28.2 µM (inconclusive).

For COc1ccc2nc(O)c(CN(CCO)C(=O)c3cccs3)cc2c1, which AC50 (Cytochrome P450 2C19) is on record?
The AC50 was 31.6 µM (inconclusive).

What about the AC50 (Cytochrome P450 1A2) of the same compound?
The AC50 was 20 µM (inconclusive).

What about the AC50 (Cytochrome P450 3A4) of the same compound?
The AC50 was 15.8 µM (inconclusive).

Which AC50 (Cytochrome P450 2C19) does the source give for O=c1[nH]c2cc(Cl)ccc2c(O)c1-c1cccc(Oc2ccccc2)c1 here?
Its AC50 is 31.6 µM (inconclusive).

What about the AC50 (Cytochrome P450 1A2) of the same compound?
The AC50 was 2.51 µM (inconclusive).

Which AC50 [4] does the source give for Cc1cc(C(C)(C)C)ccc1OCCCCN1CCCC1 here?
Its AC50 is 2.57 µM (active).

With COc1ccccc1C1(CC(=O)Nc2nccs2)CCOC(C(C)C)C1 (stereo not drawn) as the compound, how does the AC50 (Cytochrome P450 2D6) read?
The AC50 was 22.4 µM (inconclusive).

What about the AC50 (Cytochrome P450 1A2) of the same compound?
Its AC50 is 5.62 µM (inconclusive).
